Test [1] concerns erythema. Kind of test: UV-induced erythema test (number of rats estimated as effective). It counts as in vivo, male Hartley rats. To be noted: oral, ten rats per group, half 1 h before and half just after UV radiation, scored 2 h later. Here is the method:
Ten male 5 week old Hartley rats, each weighing about 350 g. were used per group. The backs of each animal were depilated 24 hours before the test. An adhesive tape with 3 small holes of 9 mm. diameter was placed on the depilated skin and then the animal was exposed to ultra-violet radiation from an ultra-violet lamp (500 W, manufactured by Engelhard Hanovia Inc.) at a distance of 13 cm. for 80 seconds. Two hours later, the degree of erythema was estimated on the basis of the following scores:
1.0: erythema with clear border,
0.5: erythema with unclear border,
The drugs were regarded as being effective when the total of 3 points was below 1.5.
Each dosage of the test compound was administered orally in a suspension form in 20 ml. of 0.5% methyl cellosolve aqueous solution. Half of the test sample was administered one hour before the radiation and the remaining half of the test solution was administered just after radiation.

Test [2] concerns contraction induced by arachidonic acid. Put plainly: Arachidonic acid-induced contraction of isolated stomach fundus strip. Set-up: species or system Sprague-Dawley rats. To be noted: rat stomach fundus strip, arachidonic acid 1.0×10^-5 g/ml as spasmogen, compound added 15 minutes before. Here is the method:
The stomach was removed from Sprague-Dawley rats, weighing about 180 g., after the animals were fasted overnight. A strip of stomach fundus was suspended under initial tension of 0.6 g. in a 10 ml. organ bath containing Tyrode solution. Arachidonic acid (1.0×10^-5 g/ml.) was employed as the spasmogen. Several doses of the test compound were added to the individual bath fluid 15 minutes before the addition of arachidonic acid. The value of contraction induced by arachidonic acid was measured and plotted dose-activity curve. ED50 value of each test compound was obtained by interpolation from the dose-activity curve.

Test [3] has as its system Brewer's yeast-induced hyperthermia. Put plainly: Brewer's yeast-induced hyperthermia (antipyretic effect). The format is in vivo, male SD strain rats. To be noted: oral; for ED50: Rattus norvegicus. Here is the method: (§1) Male SD strain rats aged 6 weeks, weighing 164-235 g, were divided into 4 groups i.e. A, B, A' and B' of 10 animals each and were treated as shown below:
(§2) Group A saline 0.5% methylcellulose
(§3) Group B 5% Brewer's yeast
(§4) Group A' saline Test substance
(§5) Group B' 5% Brewer's yeast
(§6) The test substance or 0.5%MC were given orally to rats 4 hr after subcutaneous injection of 5% Brewer's yeast or saline. The rectal temperature was measured with a thermister probe inserted about 4.5-5.0 cm into the rectum 4 hr before, and 1 and 2 hr after the injection of test substance.
The antipyretic effect (%) of test substance on the Brewer's yeast-induced hyperthermia at 1 and 2 hr after the injection of test substance was calculated from the mean rectal temperature (rectal temp.) in each group by the following formula: [formula]
(§7) All experiments were performed at an ambient temperature of 22.0°-22.5° C.
(§8) Test substance, the compound obtained in the Example 5-(2) was dissolved in 0.5%MC at a dose of 10 mg/kg and 100 mg/kg, and also suspended in 0.5%MC at a dose of 320 mg/kg, and Brewer's yeast was suspended in saline.
(§9) Statistics: Calculation of ED50 value according to the Litchfield-Wilcoxon's method was performed with a computer program. Statistic analysis of difference between the control and treated groups according to the Student's t-test or Cochran-Cox test was performed with a computer program.

The subject of test [4] is writhing syndrome. Put plainly: Acetic acid-induced writhing syndrome. The format is in vivo, male ddy strain mice. Particulars: oral. Here is the method:
Male ddy strain mice, weighing 24.0-32.0 g, were used. Each dose group consisted of 10 animals. Writhing syndrome was produced by an intraperitoneal injection of 20 ml/kg of 0.6% acetic acid. […] The drug were given orally 60 minutes before acetic acid. The frequency of writhing syndrome for 10 minutes in the treated animals was compared with that in the control. Control animals received the vehicle.
The test substances, the compound obtained in the Example 5-(2) was suspended in 0.5% methylcellulose.
ED50 value was calculated according to the Litchfield-Wilcoxon's method with a computer program.

Test [5] is described as follows: Rectal temperature in saline-treated rats. It counts as in vivo, male SD strain rats. Here is the method:
as §1, §2, §3, §4, §5, §6, §7, §8, §9

Regarding `Nc1c(CC(=O)[O-])cccc1Oc1ccccc1F.[Na+]` [Example 2 - (2), sodium 2-[2-amino-3-(2-fluorophenoxy)phenyl]acetate], the “Number of rats estimated as effective” value is recorded as 9 rats in test [1] (2 mg/kg) and 10 rats in test [1] (10 mg/kg). Besides, the ED50 in test [2] came to 1.6 µg/mL.
In test [2], `Nc1c(CC(=O)[O-])cccc1Oc1cccc(Cl)c1.[Na+]` [Example 4 - (2), sodium 2-[2-amino-3-(3-chlorophenoxy)phenyl]acetate] registered an ED50 of 1.7 µg/mL.
As to `Nc1c(CC(=O)[O-])cccc1Oc1ccccc1Cl.[Na+]` [Example 5 - (2), sodium 2-[2-amino-3-(2-chlorophenoxy)phenyl]acetate], the ED50 turned out to be 37.3 mg/kg in test [3] (1 hr after administration); 12.8 mg/kg in test [3] (2 hr after administration); 19.6 mg/kg in test [4] (Mus musculus, 60 minutes before acetic acid, writhing 3 to 13 minutes after acetic acid, read-out: ED50 value (inhibition of writhing)); 1.3 µg/mL in test [2]. Besides, the “antipyretic effect on the Brewer's yeast-induced hyperthermia” value in test [3] (all doses (10, 100, 320 mg/kg), 1 and 2 hr after administration) is given as “showed the antipyretic effect on the Brewer's yeast-induced hyperthermia”. Also, the results for the “Number of rats estimated as effective” value in test [1] (2 mg/kg) and in test [1] (10 mg/kg) were 8 rats and 10 rats, respectively. In addition, the “effect on the writhing syndrome caused by acetic acid” value in test [4] is “dose-related inhibiting effects on the writhing syndrome”. Besides, the rectal temperature change entry in test [5] (10 mg/kg, 1 hr, slight but significant) was “produced a rise”; in test [5] (100 mg/kg, 2 hr), “significant fall of the rectal temperature”; in test [5] (320 mg/kg, 1 hr, slight but significant) it was “produced a fall of the rectal temperature”; in test [5] (320 mg/kg, 2 hr), “significant fall of the rectal temperature”.
On to `Nc1c(CC(=O)[O-])cccc1Oc1cc(Cl)cc(Cl)c1.[Na+]` [Example 7 - (2), sodium 2-[2-amino-3-(3,5-dichlorophenoxy)phenyl]acetate], for which the ED50 in test [2] was 0.16 µg/mL.
For `Cc1ccccc1Oc1cccc(CC(=O)[O-])c1N.[Na+]` [Example 10 - (2), sodium 2-[2-amino-3-(o-tolyloxy)phenyl]acetate], the “Number of rats estimated as effective” value is reported as 5 rats in test [1] (2 mg/kg) and 10 rats in test [1] (10 mg/kg). The compound further registered an ED50 in test [2] of 2.5 µg/mL.
Regarding `Nc1c(CC(=O)[O-])cccc1Oc1c(Cl)cccc1Cl.[Na+]` [Example 19, sodium 2-[2-amino-3-(2,6-dichlorophenoxy)phenyl]acetate], in test [2], the ED50 worked out at 2.4 µg/mL.

Values taken from US4472433A, “Phenoxyphenyl acetic acids and their medicinal use” (Fujisawa Pharmaceutical Co., Ltd., priority 1978, dated 1984).
